As a reminder, the EC50 is the midpoint of the concentration-response curve. The term Tmax denotes the time at which the peak concentration occurs. The Cmax is the peak of the concentration-time curve. What is called AUC(0-t) is exposure summed from dosing to a finite time, without extrapolation to infinity. The half-life is the time in which the quantity being followed falls by half. A lower half-life goes with rapid decline.

One data set has as its system rats. The experiment in a line: positive emotional learning (PEL) test, 50-kHz ultrasonic vocalizations. The format is in vivo, rat. The conditions noted are these: PO, dose .1 mg/kg, one hour after administration. On the procedure:
Experiments were conducted as described in Burgdorf et al., “The effect of selective breeding for differential rates of 50-kHz ultrasonic vocalizations on emotional behavior in rats,” Devel. Psychobiol., 51:34-46 (2009). Rat 50-kHz ultrasonic vocalization (hedonic USVs) is a validated model for the study of positive affective state and is best elicited by rough-and-tumble play.
The PEL assay measures the acquisition of positive (hedonic) 50-kHz ultrasonic vocalizations (USVs) to a social stimulus, heterospecific rough and tumble play stimulation. Heterospecific rough-and-tumble play stimulation was administered by the experimenter's right hand. One hour after administration of test compound or vehicle negative control (0.5% sodium carboxymethyl cellulose in […] sterile saline), animals received 3 min of heterospecific rough-and-tumble play that consisted of alternating 15 sec blocks of heterospecific play and 15 sec of no-stimulation. High frequency ultrasonic vocalizations (USVs) were recorded and analyzed by sonogram with Avasoft SASlab Pro (Germany) as previously described by Burgdorf et al., “Positive emotional learning is regulated in the medial prefrontal cortex by GluN2B-containing NMDA receptors,” Neuroscience, 192:515-523 (2011). Frequency modulated 50-kHz USVs that occurred during each of the no-stimulation periods were quantified to measure PEL. Animals were not habituated to play stimulation before testing. Positive emotional learning was measured during the conditioned stimulus (CS) trials preceding the tickle unconditioned stimulus (UCS) trials. Animals received 15 second trials consisting of 6 CS and 6 UCS trials each (3 min total).
The table below summarizes the findings. As each experiment includes its own vehicle group, an example (typical) vehicle score is shown. Max effect (mean number of 50 kHz USVs per 15 seconds) is reported as ^: <6.0; *: 6-10.9; **: 11-16.9; ***: 17-22.

A further data set addresses T1, NMDAR2B (Homo sapiens, UniProt Q13224).
T1 construct: expressed in transfected cells; host or cells: HEK cells (membrane extract)
The experiment in a line: [3H]MK-801 binding in NMDAR expressing HEK cell membranes (facilitation of NMDAR activation). In kind it is biochemical. The conditions noted are these: 50 μM glutamate; for EC50: read-out: B: log EC50 (converted). Summed up: (§1)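 HEK membranes (300 μg) expressing the NMDAR subunit were preincubated 15 min at 25 °C with 50 μM glutamate and compound ([…]−1×10^−7M), then with 0.3 μCi [3H]MK-801 for 15 min under nonequilibrium conditions and filtered. Baseline-subtracted DPM was expressed as % of 1 mM glycine, and EC50 and % maximal binding came from three-parameter curve fits.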

The next data set deals with T2, NMDAR2A (Homo sapiens, UniProt Q12879).
T2 construct: expressed in transfected cells; host or cells: HEK cells (membrane extract)
The data set is described as above. In kind it is biochemical. The note with it: 50 μM glutamate. The essentials: as §1

The nature of data set [1]: oral pharmacokinetics (plasma, brain, CSF). In kind it is in vivo, Sprague Dawley rats. The conditions noted are these: rat, per os 10 mg/kg; for Tmax: normal saline (* in 5% NMP, 5% Solutol HS, 90% normal saline).
Procedure: In another experiment, Sprague Dawley rats were dosed per os using a normal saline formulation containing 10 mg/kg of the compounds identified in the table below (except for the compounds marked with an asterisk (“*”) that were delivered in 5% NMP, 5% Solutol® HS and 90% normal saline formulation). Plasma, brain, and CSF samples were analyzed at various time points over a 24 hour period.
The next data set deals with Sprague Dawley rats. The experiment in a line: Bennett model of mechanical analgesia (sciatic nerve chronic constriction, paw withdrawal threshold).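 Note: log paw withdrawal threshold scaled from vehicle group mean (0%) to naive 15 g value (100%).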 The conditions noted are these: 10 mg/kg PO. The format is in vivo, rat. On the procedure: The Bennett model of mechanical analgesia is used to assess the analgesic effects of compounds as measured by paw withdrawal threshold. Bennett GJ, Xie YK, “A peripheral mononeuropathy in rat that produces disorders of pain sensation like those seen in man,” Pain 33:87-107, 1988. […] Vehicle animals receive the surgery and then receive vehicle rather than test compound. Animals were tested 1 hr, 24 h and 1 wk post-test compound or vehicle administration.
Male 2-3 month old Sprague Dawley rats were used. Harlan was the supplier for all studies. Rats were housed in Lucite cages with aspen wood chip bedding, maintained on a 12:12 light:dark cycle (lights on at 5 AM), and given ad libitum access to Purina lab chow (USA) and tap water throughout the study.
Rats were anesthetized using inhaled isoflurane (2.5%). Sciatic nerve chronic constriction nerve injury surgery was performed as previously described (Bennett and Xie, 1988). An incision (˜1.5 cm in length) was made with a scalpel blade dorsally through skin on the right hind limb, parallel and posterior to femur. Using a small pointed hemostat, the biceps femoris and gluteus superficialis muscles were separated. Using curved blunt forceps, the common sciatic nerve was isolated and exposed. For the mechanical analgesia studies, the whole sciatic nerve was ligated. Using hemostats/forceps and chromic gut (5-0), the nerve was loosely ligated with a square knot; 3 ligatures, 1 mm apart were placed on the nerve. […] Testing occurred approximately 2 weeks post-surgery.
During testing, rats were acclimated to the surface of a suspended wire mesh grid (1 cm×1 cm, with the wire being 0.3 cm in diameter) for 15-20 min. Starting from the smallest, each Von Frey filament was pressed perpendicularly to the plantar surface of the affected (ipsilateral) hind paw until slightly bent and then held for 6 second. If an obvious hind paw withdrawal or a flinching behavior immediately after the withdrawal of the filament was not observed, the next larger filament was used in the same manner. In case of a response, a lower filament was used. This was repeated until six responses were collected.
For all studies, animals were baselined prior to study start to test for allodynia (defined as a paw withdrawal threshold under 5). A subset of animals was tested with gabapentin (150 mg/kg, PO) to ensure at least 50% analgesia. Once it was confirmed animals were ready for study initiation, animals were balanced across groups. All study investigators were blind to treatment conditions. Animals were dosed with 0.1, 1 or 10 mg/kg of test compound via oral gavage (PO), control sets of animals were dosed with gabapentin (150 mg/kg, PO) or vehicle (0.5% Na-CMC in 0.9% sterile saline, PO). Testing occurred 1 h post-dosing with animals retested 24 hrs and 1 week post-dosing. The percent analgesia calculations for each animal were made using the following equation: % analgesia=[(log(x)−y)/((log (z)−y)]*100, where x=the paw withdrawal threshold for the drug-treated animal in grams, y=the average of the log(x) values for the vehicle treated group, and z=the paw withdrawal threshold for naïve animals in grams (historical value of 15 used).
The results are shown in the table below where the percentage of analgesia is measured at 1 hour, 24 hours, and 1 week after compound administration. Since each study had its own gabapentin control group, an example gabapentin control value is shown.

The next data set can be described thus: IV pharmacokinetics. In kind it is in vivo, Sprague Dawley rats. The conditions noted are these: rat, 2 mg/kg, normal saline (* in 5% NMP, 5% Solutol HS, 90% normal saline). The source says:
The table below summarizes the results of the IV pharmacokinetics.

The mark [2] stands for this setting: 0.25 h, read-out: A: % maximal [3H]MK-801 binding relative to 1 mM glycine.

Molecules are shown by their SMILES. Where two headings read alike, the source gives them in different places.

T2 sequence (Q12879 23-1464, species assumed, other chains not shown): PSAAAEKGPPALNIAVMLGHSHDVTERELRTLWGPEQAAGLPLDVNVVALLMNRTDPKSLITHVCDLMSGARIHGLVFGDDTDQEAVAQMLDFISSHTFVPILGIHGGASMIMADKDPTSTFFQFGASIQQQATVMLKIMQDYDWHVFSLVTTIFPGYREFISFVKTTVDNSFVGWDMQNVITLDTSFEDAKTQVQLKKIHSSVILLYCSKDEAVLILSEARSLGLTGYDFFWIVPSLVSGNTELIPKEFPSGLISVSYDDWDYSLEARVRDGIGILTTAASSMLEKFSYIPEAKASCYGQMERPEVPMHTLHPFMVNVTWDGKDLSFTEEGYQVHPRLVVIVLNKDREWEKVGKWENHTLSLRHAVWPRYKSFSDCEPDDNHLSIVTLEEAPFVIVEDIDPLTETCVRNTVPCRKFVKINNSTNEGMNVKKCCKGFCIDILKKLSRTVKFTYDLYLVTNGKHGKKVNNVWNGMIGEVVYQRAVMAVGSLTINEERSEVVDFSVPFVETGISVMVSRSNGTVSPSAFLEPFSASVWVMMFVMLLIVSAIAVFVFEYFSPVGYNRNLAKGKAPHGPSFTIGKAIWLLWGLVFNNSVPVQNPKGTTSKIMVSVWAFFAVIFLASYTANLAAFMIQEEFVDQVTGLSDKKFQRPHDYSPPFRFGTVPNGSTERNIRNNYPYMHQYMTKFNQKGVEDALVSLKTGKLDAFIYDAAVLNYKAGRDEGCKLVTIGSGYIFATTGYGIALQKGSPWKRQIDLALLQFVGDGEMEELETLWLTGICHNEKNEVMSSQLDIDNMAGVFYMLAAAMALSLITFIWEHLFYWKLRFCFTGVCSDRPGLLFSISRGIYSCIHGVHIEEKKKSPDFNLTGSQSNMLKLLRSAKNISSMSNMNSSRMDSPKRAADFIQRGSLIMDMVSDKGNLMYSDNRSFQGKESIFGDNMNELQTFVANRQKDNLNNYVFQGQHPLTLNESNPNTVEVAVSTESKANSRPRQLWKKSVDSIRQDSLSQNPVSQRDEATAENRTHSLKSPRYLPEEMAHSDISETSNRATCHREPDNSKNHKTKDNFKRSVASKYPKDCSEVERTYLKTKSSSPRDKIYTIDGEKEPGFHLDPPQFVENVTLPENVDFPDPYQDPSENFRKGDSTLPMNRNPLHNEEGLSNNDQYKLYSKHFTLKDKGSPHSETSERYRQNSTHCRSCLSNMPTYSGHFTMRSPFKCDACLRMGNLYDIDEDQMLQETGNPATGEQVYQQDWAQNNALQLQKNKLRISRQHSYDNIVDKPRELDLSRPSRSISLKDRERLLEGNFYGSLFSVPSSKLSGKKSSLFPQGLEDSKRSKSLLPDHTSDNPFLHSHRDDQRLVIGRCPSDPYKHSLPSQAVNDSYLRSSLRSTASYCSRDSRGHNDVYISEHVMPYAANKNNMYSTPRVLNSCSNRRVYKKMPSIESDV
T1 sequence (Q13224 27-1484, species assumed, other chains not shown): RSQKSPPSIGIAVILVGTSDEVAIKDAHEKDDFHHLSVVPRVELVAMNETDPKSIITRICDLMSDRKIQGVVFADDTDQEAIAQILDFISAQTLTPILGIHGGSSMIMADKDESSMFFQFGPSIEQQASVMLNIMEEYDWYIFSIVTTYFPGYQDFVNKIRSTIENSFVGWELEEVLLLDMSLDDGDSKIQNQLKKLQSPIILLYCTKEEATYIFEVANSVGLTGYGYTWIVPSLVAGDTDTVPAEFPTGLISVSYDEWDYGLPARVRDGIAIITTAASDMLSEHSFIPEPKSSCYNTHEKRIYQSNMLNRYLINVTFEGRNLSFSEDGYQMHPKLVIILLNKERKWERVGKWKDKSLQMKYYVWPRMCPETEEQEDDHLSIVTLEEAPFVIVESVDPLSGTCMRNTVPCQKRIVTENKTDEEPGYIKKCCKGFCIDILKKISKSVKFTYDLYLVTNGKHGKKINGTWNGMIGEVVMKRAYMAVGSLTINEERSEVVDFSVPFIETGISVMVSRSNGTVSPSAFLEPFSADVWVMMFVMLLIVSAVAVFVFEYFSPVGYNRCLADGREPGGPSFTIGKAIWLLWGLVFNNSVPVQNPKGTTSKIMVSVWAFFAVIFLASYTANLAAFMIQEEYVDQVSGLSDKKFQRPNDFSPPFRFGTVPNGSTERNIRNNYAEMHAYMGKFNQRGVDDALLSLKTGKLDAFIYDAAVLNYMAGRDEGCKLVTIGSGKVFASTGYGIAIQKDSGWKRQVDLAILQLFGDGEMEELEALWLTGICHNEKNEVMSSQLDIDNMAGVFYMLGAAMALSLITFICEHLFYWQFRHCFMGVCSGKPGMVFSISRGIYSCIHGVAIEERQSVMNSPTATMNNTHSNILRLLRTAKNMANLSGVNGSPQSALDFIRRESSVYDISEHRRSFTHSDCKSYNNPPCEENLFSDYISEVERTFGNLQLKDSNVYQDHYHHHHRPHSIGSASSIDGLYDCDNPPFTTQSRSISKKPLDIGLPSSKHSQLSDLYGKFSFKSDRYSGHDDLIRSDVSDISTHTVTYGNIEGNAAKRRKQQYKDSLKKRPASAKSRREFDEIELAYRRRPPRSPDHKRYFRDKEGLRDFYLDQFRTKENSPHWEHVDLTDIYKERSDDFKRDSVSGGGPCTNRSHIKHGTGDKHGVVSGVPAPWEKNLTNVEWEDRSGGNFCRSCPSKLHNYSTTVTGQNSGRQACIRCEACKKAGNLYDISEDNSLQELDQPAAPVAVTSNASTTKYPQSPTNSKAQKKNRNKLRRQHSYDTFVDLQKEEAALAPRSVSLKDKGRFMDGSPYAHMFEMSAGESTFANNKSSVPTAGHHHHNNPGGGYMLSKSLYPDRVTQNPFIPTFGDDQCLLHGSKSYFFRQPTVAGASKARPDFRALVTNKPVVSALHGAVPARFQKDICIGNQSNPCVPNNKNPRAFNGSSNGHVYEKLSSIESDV

For `C[C@@H](O)[C@@H](C(N)=O)N1CC2(CCC(F)(F)CC2)C1=O` [Compound AO, (2S,3R)-2-(7,7-difluoro-1-oxo-2-azaspiro[3.5]nonan-2-yl)-3-hydroxybutanamide], in the data set with rats, the “Max Effect (mean number of 50 kHz USVs per 15 seconds)” value was “* (*: 6-10.9)”. For the same molecule, on NMDAR2B, the EC50 is below 1 nM. In addition, the figures for the Emax at NMDAR2B (setting [2]) and at NMDAR2A (setting [2]) were below 100% and 0%, respectively. Moreover, the Tmax in data set [1] (Sprague-Dawley, plasma, po, 10 mg/kg, read-out: Tmax) amounted to 1 h. For the same molecule, the Cmax in data set [1] (Sprague-Dawley, plasma, po, 10 mg/kg, plasma, read-out: Cmax) amounted to 7310 ng/mL. For the same molecule, in data set [1], the “CSF Cmax” value is reported as 1676.3 ng/mL. The figures for the “% analgesia” value in the data set on Sprague Dawley rats (1 wk), in the data set with Sprague Dawley rats (1 h) and in the data set with Sprague Dawley rats (24 h) were 18.2%, 23.7% and 7.5%, respectively.
`C[C@@H](O)[C@H](NC1CCC2(CC1)CNC2=O)C(N)=O` (single isomer, unassigned) [AQ]: the “Max Effect (mean number of 50 kHz USVs per 15 seconds)” value in the data set with rats is listed as “** (**: 11-16.9)”. Moreover, on NMDAR2B, the “A: % maximal [3H]MK-801 binding relative to 1 mM glycine” value was “+ (<100%=+)” and the EC50 was below 1 nM. Further, at NMDAR2A, the “A: % maximal [3H]MK-801 binding relative to 1 mM glycine” value is given as “+ (<100%=+)”. On NMDAR2A (read-out: B: log EC50 (converted)), the EC50 was at least 1 nM. Moreover, in data set [1], the “% F” value turned out to be 16%, the “CSF Cmax” value worked out at 65.84 ng/mL and the Tmax is 1 h. Further, the “Brain Cmax” value in data set [1] (brain) worked out at 29.91 ng/mL. In data set [1] (plasma), this molecule showed an AUClast of 1805.63 ng·h/mL and a Cmax of 499.27 ng/mL. Further, in the data set “IV pharmacokinetics” (Sprague-Dawley, in vivo, iv), the AUC(0-t) was found to be 2290 ng·h/mL and the half-life was 3.84 h. The C0 in “IV pharmacokinetics” (Sprague-Dawley, in vivo, iv, read-out: C0) is 3990 ng/mL. In addition, the Vd in “IV pharmacokinetics” (Sprague-Dawley, in vivo, iv, read-out: Vss) was found to be 1.22 L/kg. Besides, in the data set “IV pharmacokinetics” (intravenous 2 mg/kg), the CI turned out to be 14.64 mL/min/kg.
